Measured values as given in PMC9037180, “Ligand-based design and synthesis of N'-Benzylidene-3,4-dimethoxybenzohydrazide derivatives as potential antimicrobial agents; evaluation by in vitro, in vivo, and in silico approaches with SAR studies” (Journal of Enzyme Inhibition and Medicinal Chemistry, 2022).
In brackets after ≈: the same amount, converted by molar mass.

Tests used:
[1] = tested on: P. aeruginosa; experiment: Agar well diffusion assay; assay type: cell-based; conditions: result in words
Description: (§1) The agar well diffusion assay was first done to evaluate the antimicrobial activities of the different target compounds (4a–j) against gram-positive bacteria, gram-negative bacteria, and fungi (Table 1A). […] First, the antibacterial activities were tested against S. aureus ATCC 6538, Acientobacter (A. baumanii) ATCC 19606, S. typhi, E. coli, and P. aeruginosa as examples of the most common gram-positive and gram-negative bacteria, in comparison to vancomycin and ceftriaxone as two reference standards. In addition, the antifungal activities were screened against C. albicans, in comparison to amphotericin as a reference standard. […] The antibacterial activities of some tested compounds (4a, 4b, 4h, and 4e) against gram-positive and gram-negative bacteria by agar well diffusion assay are represented in the supplementary data (Figure SI1).
(§2) A modification of the agar well diffusion method[55] was done to detect the antimicrobial activities of different compounds (4a–j) against gram-positive bacteria, gram-negative bacteria, and fungi. The work was carried out at the Microbiology Department Faculty of Medicine for Girls Al-Azhar University. By visual comparison to 0.5 McFarland turbidity standards, a suspension of each bacterial strain was prepared. The zones of inhibition were measured in cm.

[2] = tested on: S. aureus ATCC 6538; experiment: Agar well diffusion assay; assay type: cell-based; conditions: result in words
Description: as §1, §2

[3] = tested on: S. typhi; experiment: Agar well diffusion assay; assay type: cell-based; conditions: result in words
Description: as §1, §2

[4] = tested on: S. typhi clinical isolate; experiment: Minimal inhibitory concentration (MIC), broth dilution; assay type: cell-based
[5] = tested on: Aciento sensitive; experiment: Minimal bactericidal concentration (MBC); assay type: cell-based, A. baumanii; conditions: Aciento sensitive
Description: After determining the MIC for the target compounds, the minimal bactericidal concentration (MBC) for each compound that is required to kill each one of the above-mentioned microorganisms was assessed.

[6] = tested on: S. aureus; experiment: Biochemical analysis in S. aureus-infected rats; assay type: in vivo; conditions: first and second dose (1.9 and 3.8 mg/kg IP daily for one week)
Description: The compounds 4h and 4j were dissolved in DMSO (dimethyl sulfoxide) then further dilutions were made by using sterile distilled water. The doses of both candidates were calculated according to the method given by Paget and Barnes[60]. Sterile distilled water, DEMSO, and investigated compounds (4h (1.9 and 3.8 mg/kg) and 4j (1.9 and 3.8 mg/kg)) were injected in a volume of 4 ml/kg[61]. The experiment lasts two weeks, the 1st week for induction of infection in the infected groups and the 2nd week for the administration of the compounds in all groups. […]
ALT and AST were determined[66] using commercial kits obtained from Diamond Diagnostics, Egypt.
Serum urea was determined by using the modified Berthelot–Searcy method. Serum creatinine activity was also assessed by using the application of Jaffe’s reaction.
Serum levels of the pro-inflammatory cytokine, TNF-α, were determined by the quantitative enzyme immunoassay (EIA) kit purchased from R&D Systems (USA) according to the method of Howard and Harada[69], while that of anti-inflammatory cytokine IL-10 was according to Croft et al.. […]

[7] = tested on: S. aureus; experiment: H&E histological examination of liver and kidney, S. aureus infected rats; assay type: in vivo
Description: Rats were divided randomly into equal fifteen groups, each containing 9 rats as follows: • Group 1: Rats were kept on standard laboratory chow and water ad libitum to serve as a control. • Group 2: Rats have injected IP with sterile distilled water (4ml/kg) daily for one week to serve as a control. • Group 3: Rats have injected IP with DEMSO (dimethyl sulfoxide) (4 ml/kg) daily for one week to serve as a control. • Group 4: Rats have injected IP with 4h (1.9 mg/kg) daily for one week. • Group 5: Rats have injected IP with 4h (3.8 mg/kg) daily for one week. • Group 6: Rats have injected IP with 4i (1.9 mg/kg) daily for one week. • Group 7: Rats have injected IP with 4i (3.8 mg/kg) daily for one week. • Group 8: Rats were infected by a single IM injection of S. aureus strain [1.0 ml) 1 × 10^7) colony-forming units]. • Group 9: Rats have injected IP with 4h (1.9 mg/kg) daily for one week on the 7th day after induction of infection by a single IM injection of S. aureus strain [1.0 ml (1 × 10^7) colony-forming units. • Group 10: Rats have injected IP with 4h (3.8 mg/kg) daily for one week on the 7th day after induction of infection by a single IM injection of S. aureus strain [1.0 ml (1 × 10^7) colony-forming units]. • Group 11: Rats were infected by a single IM injection of S. typhi strain [1.0 ml (1 × 10^7) colony forming units). • Group 12: Rats have injected IP with 4h (1.9 mg/kg) daily for one week. on the 7th day after induction of infection by a single IM injection of S. typhi strain [1.0 ml (1 × 10^7) colony-forming units]. • Group 13: Rats have injected IP with 4h (3.8 mg/kg) daily for one week on the 7th day after infection by a single IM injection of S. typhi strain [1.0 ml (1 × 10^7) colony-forming units]. • Group 14: Rats have injected IP with 4i (1.9 mg/kg) daily for one week. on the 7th day after induction of infection by a single IM injection of S. typhi strain [1.0 ml (1 × 10^7) colony-forming units]. • Group 15: Rats have injected IP with 4i (3.8 mg/kg) daily for one week. on the 7th day after induction of infection by a single IM injection of Salmonella strain [1.0 ml (1 × 10^7) colony-forming units].
At the end of the experiment, the animals were euthanized through cervical dislocation. After that, the liver and kidney were dissected for histological study. The procedure for histological preparations was described by Bancroft and Stevens[73]. Briefly, liver and kidney tissues were sliced to 3–4 mm thick, fixed in 10% neutral buffered formalin (10% NBF), dehydrated in graded concentrations of ethanol, cleared in xylene, and embedded in paraffin. The paraffin blocks were sectioned with a microtome at (4–6 μm) thickness and dyed with H & E stain to study the general tissue structure.

[8] = tested on: Acientobacter sensitive; experiment: Minimal inhibitory concentration (MIC), broth dilution
[9] = tested on: P. aeruginosa ATCC10145; experiment: as above
[10] = tested on: Acientobacter (A. baumanii) ATCC 19606; experiment: Agar well diffusion assay; assay type: cell-based; conditions: result in words
Description: as §1, §2

[11] = tested on: E. coli; experiment: Agar well diffusion assay; assay type: cell-based; conditions: result in words
Description: as §1, §2

| Molecule | zones of inhibition (inhibitory activity) [1] | zones of inhibition (inhibitory activity) [2] | zones of inhibition (inhibitory activity) [3] | MIC ([4]; S. typhi (ST)) | MBC [5] | renal and liver functions, oxidative stress and inflammatory markers (urea, creatinine, ALT, AST, GSH, MDA, TNF-α, IL-10) [6] | kidney pathological changes (H&E) ([7]; high dose (3.8 mg/kg)) | liver pathological changes (H&E) ([7]; high dose (3.8 mg/kg)) | kidney pathological changes (H&E) ([7]; low dose (1.9 mg/kg)) | liver pathological changes (H&E) ([7]; low dose (1.9 mg/kg)) | MIC ([8]; Acientobacter sensitive (AS)) | MIC ([9]; P. auriginosa (PA)) | zones of inhibition (inhibitory activity) [10] | zones of inhibition (inhibitory activity) [11] | MIC ([4]; Salmonella enterica, TYPHI) | MIC ([8]; Acinetobacter baumannii) | MIC ([9]; Pseudomonas aeruginosa, ATCC10145) |
| --- | --- | --- | --- | --- | --- | --- | --- | --- | --- | --- | --- | --- | --- | --- | --- | --- | --- |
| N'-((3a,7a-dihydro-1H-indol-3-yl)methylene)-3,4-dimethoxybenzohydrazide [Compound 4h] | best activities | best activities | best activities | 12.07 µM | 96.87 µM | significant improvement in all the measured parameters | marked improved renal tissue | marked improvement in the pathological changes | improved pathological changes | improved pathological changes | 24.17 µM | 193.40 µM |  |  |  |  |  |
| COc1ccc(C(=O)NN=Cc2ccc3ccccc3n2)cc1OC [Compound 4i, N'-(quinolin-2-ylmethylene)-3,4-dimethoxybenzohydrazide] |  |  |  |  |  |  |  |  |  |  |  |  | most inhibitory activity | superior inhibitory activity | 93.4 µM (≈ 31.3 µg/mL) | 46.5 µM (≈ 15.6 µg/mL) | 186 µM (≈ 62.5 µg/mL) |
